ChEMBL document CHEMBL3885881, “DrugMatrix”

Organism: Rattus norvegicus
Assay: DrugMatrix - Regimen: Daily Repeat
Type: toxicity, organism-based, Sprague-Dawley
Set-up: regimen Daily Repeat, gender Male, age 6-8 weeks
Conditions: in vivo, sc, route subcutaneous, […]; for ABSOLUTE BASOPHIL / BASOPHIL / ABSOLUTE EOSINOPHIL / ABSOLUTE LYMPHOCYTE / ABSOLUTE MONOCYTE / ABSOLUTE SEGMENTED NEUTROPHIL / EOSINOPHIL / ERYTHROCYTE COUNT / HEMATOCRIT / HEMOGLOBIN / LEUKOCYTE COUNT / LYMPHOCYTE / MEAN CORPUSCULAR HEMOGLOBIN / MEAN CORPUSCULAR HEMOGLOBIN CONCENTRATION / MEAN CORPUSCULAR VOLUME / MONOCYTE / NEUTROPHIL / NUCLEATED RED BLOOD CELLS / PLATELET COUNT: tissue Blood; for CREATININE / ALANINE AMINOTRANSFERASE / ALBUMIN / ALKALINE PHOSPHATASE / ASPARTATE AMINOTRANSFERASE / BLOOD UREA NITROGEN / CARBON DIOXIDE / CHLORIDE / CHOLESTEROL / CREATINE PHOSPHOKINASE / GLUCOSE / LACTATE DEHYDROGENASE / LIPASE / PHOSPHORUS / POTASSIUM / SODIUM / TOTAL BILIRUBIN / TOTAL PROTEIN / URIC ACID: tissue Plasma
[1] = 0 mg/kg, 72 h, dose level Control, time 3 day
[2] = 0 mg/kg, 120 h, dose level Control, time 5 day
[3] = 0.1 mg/kg, 72 h, dose level Low, time 3 day
[4] = 0.1 mg/kg, 120 h, dose level Low, time 5 day
[5] = 2 mg/kg, 72 h, dose level M2, time 3 day
[6] = 2 mg/kg, 120 h, dose level M2, time 5 day

C[C@]12CC[C@@H]3c4ccc(OC(=O)c5ccccc5)cc4CC[C@H]3[C@@H]1CC[C@@H]2O [ESTRADIOL BENZOATE]
ABSOLUTE BASOPHIL [1]: 0 CELLS/uL | BASOPHIL [1]: 0% | ABSOLUTE BASOPHIL [2]: 0 CELLS/uL | BASOPHIL [2]: 0% | CREATININE [2]: 0.17 mg/dL | ABSOLUTE BASOPHIL [3]: 0 CELLS/uL | ABSOLUTE EOSINOPHIL [3]: 27.33 CELLS/uL | ABSOLUTE LYMPHOCYTE [3]: 9086.67 CELLS/uL | ABSOLUTE MONOCYTE [3]: 78.67 CELLS/uL | ABSOLUTE SEGMENTED NEUTROPHIL [3]: 1407.33 CELLS/uL | BASOPHIL [3]: 0% | EOSINOPHIL [3]: 0.33% | ERYTHROCYTE COUNT [3]: 6.05 x10E6/uL | HEMATOCRIT [3]: 38.9% | HEMOGLOBIN [3]: 13.37 G/DL | LEUKOCYTE COUNT [3]: 10.6 x10E3/uL | LYMPHOCYTE [3]: 85.67% | MEAN CORPUSCULAR HEMOGLOBIN [3]: 22.27 pg | MEAN CORPUSCULAR HEMOGLOBIN CONCENTRATION [3]: 34.73 G/DL | MEAN CORPUSCULAR VOLUME [3]: 64.23 fL | MONOCYTE [3]: 0.67% | NEUTROPHIL [3]: 13.33% | NUCLEATED RED BLOOD CELLS [3]: 0 /100WBC | PLATELET COUNT [3]: 1490.33 x10E3/uL | ALANINE AMINOTRANSFERASE [3]: 35.67 u/L | ALBUMIN [3]: 4.43 G/DL | ALKALINE PHOSPHATASE [3]: 250.67 u/L | ASPARTATE AMINOTRANSFERASE [3]: 76 u/L | BLOOD UREA NITROGEN [3]: 10 mg/dL | CARBON DIOXIDE [3]: 23.67 mmol/L | CHLORIDE [3]: 100.33 MEQ/L | CHOLESTEROL [3]: 76.67 mg/dL | CREATINE PHOSPHOKINASE [3]: 460 u/L | CREATININE [3]: 0.17 mg/dL | GLUCOSE [3]: 191.67 mg/dL | LACTATE DEHYDROGENASE [3]: 269.67 u/L | LIPASE [3]: 9 u/L | PHOSPHORUS [3]: 12.77 mg/dL | POTASSIUM [3]: 6.18 MEQ/L | SODIUM [3]: 140.73 MEQ/L | TOTAL BILIRUBIN [3]: 0.1 mg/dL | TOTAL PROTEIN [3]: 5.77 G/DL | URIC ACID [3]: 3.8 mg/dL | ABSOLUTE BASOPHIL [4]: 0 CELLS/uL | ABSOLUTE EOSINOPHIL [4]: 79 CELLS/uL | ABSOLUTE LYMPHOCYTE [4]: 6274.33 CELLS/uL | ABSOLUTE MONOCYTE [4]: 295 CELLS/uL | ABSOLUTE SEGMENTED NEUTROPHIL [4]: 551.67 CELLS/uL | BASOPHIL [4]: 0% | EOSINOPHIL [4]: 1% | ERYTHROCYTE COUNT [4]: 5.91 x10E6/uL | HEMATOCRIT [4]: 35.77% | HEMOGLOBIN [4]: 13.47 G/DL | LEUKOCYTE COUNT [4]: 7.2 x10E3/uL | LYMPHOCYTE [4]: 86.67% | MEAN CORPUSCULAR HEMOGLOBIN [4]: 22.8 pg | MEAN CORPUSCULAR HEMOGLOBIN CONCENTRATION [4]: 37.67 G/DL | MEAN CORPUSCULAR VOLUME [4]: 60.53 fL | MONOCYTE [4]: 4% | NEUTROPHIL [4]: 8.33% | NUCLEATED RED BLOOD CELLS [4]: 0 /100WBC | PLATELET COUNT [4]: 1231.67 x10E3/uL | ALANINE AMINOTRANSFERASE [4]: 39.67 u/L | ALBUMIN [4]: 5.37 G/DL | ALKALINE PHOSPHATASE [4]: 187.33 u/L | ASPARTATE AMINOTRANSFERASE [4]: 63 u/L | BLOOD UREA NITROGEN [4]: 13.67 mg/dL | CARBON DIOXIDE [4]: 29 mmol/L | CHLORIDE [4]: 98.33 MEQ/L | CHOLESTEROL [4]: 96.33 mg/dL | CREATINE PHOSPHOKINASE [4]: 578 u/L | CREATININE [4]: 0.18 mg/dL | GLUCOSE [4]: 128.33 mg/dL | LACTATE DEHYDROGENASE [4]: 137 u/L | LIPASE [4]: 10.67 u/L | PHOSPHORUS [4]: 11.5 mg/dL | POTASSIUM [4]: 6.15 MEQ/L | SODIUM [4]: 142.73 MEQ/L | TOTAL BILIRUBIN [4]: 0.1 mg/dL | TOTAL PROTEIN [4]: 7.67 G/DL | URIC ACID [4]: 2.73 mg/dL | ABSOLUTE BASOPHIL [5]: 0 CELLS/uL | ABSOLUTE EOSINOPHIL [5]: 32 CELLS/uL | ABSOLUTE LYMPHOCYTE [5]: 8090.33 CELLS/uL | ABSOLUTE MONOCYTE [5]: 25.67 CELLS/uL | ABSOLUTE SEGMENTED NEUTROPHIL [5]: 718.67 CELLS/uL | BASOPHIL [5]: 0% | EOSINOPHIL [5]: 0.33% | ERYTHROCYTE COUNT [5]: 5.61 x10E6/uL | HEMATOCRIT [5]: 37.6% | HEMOGLOBIN [5]: 14.37 G/DL | LEUKOCYTE COUNT [5]: 8.87 x10E3/uL | LYMPHOCYTE [5]: 91.33% | MEAN CORPUSCULAR HEMOGLOBIN [5]: 25.63 pg | MEAN CORPUSCULAR HEMOGLOBIN CONCENTRATION [5]: 38.23 G/DL | MEAN CORPUSCULAR VOLUME [5]: 67.03 fL | MONOCYTE [5]: 0.33% | NEUTROPHIL [5]: 8% | NUCLEATED RED BLOOD CELLS [5]: 0.33 /100WBC | PLATELET COUNT [5]: 1211.67 x10E3/uL | ALANINE AMINOTRANSFERASE [5]: 46.67 u/L | ALBUMIN [5]: 3.97 G/DL | ALKALINE PHOSPHATASE [5]: 647.67 u/L | ASPARTATE AMINOTRANSFERASE [5]: 67.67 u/L | BLOOD UREA NITROGEN [5]: 9.67 mg/dL | CARBON DIOXIDE [5]: 23.33 mmol/L | CHLORIDE [5]: 96.33 MEQ/L | CHOLESTEROL [5]: 36.33 mg/dL | CREATINE PHOSPHOKINASE [5]: 231.67 u/L | CREATININE [5]: 0.28 mg/dL | GLUCOSE [5]: 138.67 mg/dL | LACTATE DEHYDROGENASE [5]: 103 u/L | LIPASE [5]: 9.33 u/L | PHOSPHORUS [5]: 10.07 mg/dL | POTASSIUM [5]: 5.43 MEQ/L | SODIUM [5]: 138.43 MEQ/L | TOTAL BILIRUBIN [5]: 0.1 mg/dL | TOTAL PROTEIN [5]: 5.77 G/DL | URIC ACID [5]: 0.63 mg/dL | ABSOLUTE BASOPHIL [6]: 0 CELLS/uL | ABSOLUTE EOSINOPHIL [6]: 34.67 CELLS/uL | ABSOLUTE LYMPHOCYTE [6]: 10740.67 CELLS/uL | ABSOLUTE MONOCYTE [6]: 0 CELLS/uL | ABSOLUTE SEGMENTED NEUTROPHIL [6]: 658 CELLS/uL | BASOPHIL [6]: 0% | EOSINOPHIL [6]: 0.33% | ERYTHROCYTE COUNT [6]: 6.23 x10E6/uL | HEMATOCRIT [6]: 39.53% | HEMOGLOBIN [6]: 15 G/DL | LEUKOCYTE COUNT [6]: 11.43 x10E3/uL | LYMPHOCYTE [6]: 93.67% | MEAN CORPUSCULAR HEMOGLOBIN [6]: 24.17 pg | MEAN CORPUSCULAR HEMOGLOBIN CONCENTRATION [6]: 38 G/DL | MEAN CORPUSCULAR VOLUME [6]: 63.5 fL | MONOCYTE [6]: 0% | NEUTROPHIL [6]: 6% | NUCLEATED RED BLOOD CELLS [6]: 0 /100WBC | PLATELET COUNT [6]: 1334 x10E3/uL | ALANINE AMINOTRANSFERASE [6]: 47.33 u/L | ALBUMIN [6]: 3.9 G/DL | ALKALINE PHOSPHATASE [6]: 436.33 u/L | ASPARTATE AMINOTRANSFERASE [6]: 73.67 u/L | BLOOD UREA NITROGEN [6]: 13.67 mg/dL | CARBON DIOXIDE [6]: 24.33 mmol/L | CHLORIDE [6]: 103.67 MEQ/L | CHOLESTEROL [6]: 34 mg/dL | CREATINE PHOSPHOKINASE [6]: 348.33 u/L | CREATININE [6]: 0.2 mg/dL | GLUCOSE [6]: 160.67 mg/dL | LACTATE DEHYDROGENASE [6]: 186.67 u/L | LIPASE [6]: 8.67 u/L | PHOSPHORUS [6]: 11.73 mg/dL | POTASSIUM [6]: 5.75 MEQ/L
